According to US20210283099A1, “CDC7 KINASE INHIBITORS AND USES THEREOF” (SLOAN-KETTERING INSTITUTE FOR CANCER RESEARCH, priority 2010, published 2021):
Values after ≈ are worked out from the molar mass of the structure shown. Where two headings read alike, the source gives them in different places.

Experiments:
HeLa cells = experiment: S phase checkpoint western blot analysis; assay type: cell-based, human
Protocol: FIG. 15. […] HeLa cells were incubated in the presence of granaticin A or carrier control (DMSO) for the indicated times and whole cell extracts were subjected to SDS-PAGE and western blot analysis. Asyn=asynchronously growing HeLa cells. HU=HeLa cells exposed to hydroxyurea for the indicated time. HU was used as a control for DNA damaging agent that is known to […] the DNA damage checkpoint response. Again, we observed that Mcm2 mobility is shifted in the cells treated with granaticin A. MCM2 mobility is not affected by HU. Activation of the DNA damage/replication checkpoint correlates with ATM/ATR dependent phosphorylation of Chk1 at Ser345.

[1] = Liver microsome stability test; assay type: in vitro ADME
Protocol: The stability of granaticin A was determined in mouse and human liver microsomes.

Mcm2 phosphorylation = experiment: Western blotting of Mcm2 after S phase release; assay type: cell-based, human; conditions: PhALL3.1 cells, as early as 2 hours post release
Source text: FIG. 7. Granaticin A Inhibits Mcm2 phosphorylation: Following synchronization in S phase and release, PhALL3.1 cells from the experiments of FIG. 5 and FIG. 6 were collected at the indicated times post release into either control (DMSO) or granaticin A and extracts were subjected to Western blotting to detect total Mcm2 protein.

PhALL3.1 [2] = experiment: SCID-Beige mouse intraperitoneal tumor model of PhALL3.1; assay type: in vivo
Protocol: FIGS. 19A-19B. Granaticin A Inhibits growth of PhALL3. 1 in vivo: Using a SCID-Beige mouse intraperitoneal tumor model of PhALL3.1, mice were intraperitoneally treated with vehicle control (DMSO) or the indicated doses of granaticin A on days 3, 6, 9, and 12. Day 16 in vivo bioluminescence imaging (FIG. 19A) and quantitation of tumor volume are shown (FIG. 19B) and indicate 90% reduction in tumor volume by Day 16 in mice treated at the highest dose (3.0 mg/kg).

human recombinant Cdc7 = human recombinant Cdc7 (Homo sapiens, UniProt O00311); experiment: In vitro kinase reaction, Mcm2 phosphorylation by Cdc7; assay type: biochemical; conditions: radioactive ATP, SDS-PAGE, autoradiography
Chain of human recombinant Cdc7 (O00311 whole entry): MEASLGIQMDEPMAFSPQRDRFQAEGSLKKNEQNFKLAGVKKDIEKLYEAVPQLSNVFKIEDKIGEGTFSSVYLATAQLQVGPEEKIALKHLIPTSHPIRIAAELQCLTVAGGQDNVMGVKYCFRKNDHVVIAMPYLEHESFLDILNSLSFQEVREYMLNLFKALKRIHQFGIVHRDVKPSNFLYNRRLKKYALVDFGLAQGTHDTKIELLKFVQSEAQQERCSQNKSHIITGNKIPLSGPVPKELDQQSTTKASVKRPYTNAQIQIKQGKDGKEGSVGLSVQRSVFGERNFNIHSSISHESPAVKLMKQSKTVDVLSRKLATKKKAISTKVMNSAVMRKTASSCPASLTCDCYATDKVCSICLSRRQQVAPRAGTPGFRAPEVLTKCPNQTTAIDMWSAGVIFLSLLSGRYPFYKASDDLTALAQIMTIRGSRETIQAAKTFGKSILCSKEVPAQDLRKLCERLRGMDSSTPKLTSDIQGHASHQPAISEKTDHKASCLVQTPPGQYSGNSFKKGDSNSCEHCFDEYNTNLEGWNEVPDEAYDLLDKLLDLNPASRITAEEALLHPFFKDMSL
Chain of human recombinant Cdc7 (Q9UBU7 whole entry partner): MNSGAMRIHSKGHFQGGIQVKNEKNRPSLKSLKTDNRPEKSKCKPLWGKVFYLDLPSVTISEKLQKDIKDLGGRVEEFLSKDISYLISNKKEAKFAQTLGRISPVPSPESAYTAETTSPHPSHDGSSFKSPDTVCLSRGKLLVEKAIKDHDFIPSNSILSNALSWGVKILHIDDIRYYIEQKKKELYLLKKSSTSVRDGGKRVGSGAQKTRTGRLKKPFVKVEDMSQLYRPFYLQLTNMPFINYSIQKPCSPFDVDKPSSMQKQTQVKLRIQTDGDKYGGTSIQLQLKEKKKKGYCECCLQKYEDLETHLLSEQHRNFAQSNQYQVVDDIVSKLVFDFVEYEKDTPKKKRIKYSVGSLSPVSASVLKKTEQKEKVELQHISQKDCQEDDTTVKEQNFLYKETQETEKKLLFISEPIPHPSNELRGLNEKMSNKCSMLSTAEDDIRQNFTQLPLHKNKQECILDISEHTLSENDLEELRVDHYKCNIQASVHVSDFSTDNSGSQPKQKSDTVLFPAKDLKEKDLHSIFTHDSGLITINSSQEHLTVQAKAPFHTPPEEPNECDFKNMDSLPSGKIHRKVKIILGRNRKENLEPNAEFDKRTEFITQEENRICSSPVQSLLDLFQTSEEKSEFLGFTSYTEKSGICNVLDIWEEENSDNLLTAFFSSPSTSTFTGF
Protocol: FIG. 8. Mcm2 phosphorylation by Cdc7: Phosphorylated forms of Mcm2 migrate […] in SDS-PAGE gels. Using highly purified human recombinant Cdc7 and Mcm2, standard in vitro kinase reactions were performed in the presence of radioactive ATP and products were separated on SDS-PAGE gels, stained with silver, and autoradiography was performed to detect phosphorylated forms of Mcm2.

PhALL3.1 cells = experiment: Caspase 3 fluorometric activity assay in G1 synchronized cells; assay type: cell-based, human; conditions: 10 hours following release of G1 synchronized cells
SKMEL-28 = experiment: Nude mouse xenograft, melanoma; assay type: in vivo; conditions: 2.5 mg/kg/day continuous, osmotic diffusion pumps; sections at day 28
Protocol: (§1) FIG. 22A-22C. Granaticin B is Effective Against Multiple Solid Tumors: granaticin B is efficacious against mouse models of melanoma (FIG. 22A), non-small cell lung cancer (FIG. 22B), and ovarian cancer (FIG. 22C). For the ovarian cancer experiments, SCID-Beige mice were injected with 5 million OVCAR3 cells that had been transduced with a GFP-firefly luciferase expressing plasmid (Frattini, M. G. and Brentjens, R. J., unpublished data). These cells were then injected intraperitoneally into 4 cohorts of mice on Day 1. From days 7-14 the mice were injected daily with the indicated concentrations of granaticin B in the intraperitoneal space. […] Nude mice were treated with 2.5 mg/kg/day granaticin B in a continuous fashion using osmotic diffusion pumps. Sections of the treated xenografts are shown after euthanasia at day 28 and H&E staining.

[3] = test system: primary patient leukemia samples; experiment: Inhibition of cellular proliferation, all primary patient leukemia samples; assay type: cell-based, human
Protocol: FIGS. 16A-16B. Granaticin A and Granaticin B inhibit multiple tumor types: The indicated cell lines and primary patient samples were tested against the compounds listed in standard cytotoxicity assays (12 point dose response using Alamar blue reduction as an indicator of cell viability). Assays were done in triplicate and IC50 determinations were run in 12-point serial dilutions from […] to 5 nM. […] These include ras and EGFR gatekeeper mutation containing cell lines in addition to p53 mutant cell lines and other known chemotherapy resistant cell lines. Specifically, this included multi-drug resistance phenotype (MDR-overexpressing) cell lines from multiple hematologic and solid tumor cell lines. Table 1 highlights a series of primary patient leukemia samples-both acute and chronic and treatment naïve and refractory tested against granaticins A and B and Derivatives 1 and 2 (see Examples).
Table 1 highlights a series of primary patient leukemia samples-both acute and chronic and treatment naïve and refractory and the effect of granaticin A, granaticin B, derivative 1, and derivative 2 to inhibit cellular proliferation. […]

OVCAR3 cells = experiment: OVCAR3 intraperitoneal ovarian cancer model in SCID-Beige mice; assay type: in vivo, mouse; conditions: 3 mg/kg intraperitoneally daily days 7-14; imaging on day 42
Protocol: as §1

PhALL3.1 [4] = assay type: in vivo
Source text: FIGS. 20A-20C. Granaticin B Inhibits Ph-ALL3. 1 growth in vivo: Given the rapid intravenous clearance of granaticin A by the liver, granaticin B was used in a continuous infusion experiment with the PhALL3.1 animal model. Diffusion pumps containing granaticin B were surgically implanted in the flanks of 5 cohorts of mice on day +3 after injection of 5 million cells via the tail veins, and the drug (or control—C-DMSO) at the indicated concentration was allowed to diffuse for seven days before pump removal. The mice were imaged on day 12 (FIGS. 20A-20B) and tumor volume remaining was calculated (FIG. 20C).

[5] = Standard solubility studies; assay type: physicochemical
Protocol: Standard solubility studies were conducted with granaticin B. In aqueous solution, 4.0 mg/ml of granaticin B is soluble. In alcohol, >188 mg/ml of granaticin B is soluble. In methanol, >252 mg/ml of granaticin B is soluble.

Q: Which “double strand DNA breaks” value (HeLa cells; HeLa cells) does the source give for `CC1OC2CC(O)C1(O)c1c(O)c3c(c(O)c12)C(=O)C1=C(C3=O)[C@H](C)O[C@H]2CC(=O)O[C@@H]12` (stereo partly drawn) [Granaticin A, granaticin A] here?
A: increased double strand DNA breaks

Q: And the Mcm2 mobility (HeLa cells; SDS-PAGE and western blot)?
A: shifted

Q: And the “S phase checkpoint activation” value (HeLa cells; western blot, Chk1 Ser345)?
A: does not activate the S phase checkpoint

Q: What about the recovery at 30 min ([1]; human liver microsomes) of the same molecule?
A: 23.9%

Q: What about the recovery at 60 min ([1]; human liver microsomes) of the same molecule?
A: 12%

Q: What about the recovery at 30 min ([1]; mouse liver microsomes) of the same molecule?
A: 3.68%

Q: What about the recovery at 60 min ([1]; mouse liver microsomes) of the same molecule?
A: 3.84%

Q: And the “Mcm2 phosphorylation in cells” value (Mcm2 phosphorylation)?
A: inhibition of Mcm2 phosphorylation

Q: What about the “organ toxicity at necropsy” value (PhALL3.1 [2]; all mice examined at each dose level) of the same molecule?
A: no significant (grade 2 or higher) organ toxicity

Q: What about the “reduction in tumor volume” value (PhALL3.1 [2]; highest dose 3.0 mg/kg intraperitoneally on days 3, 6, 9, 12, Day 16 bioluminescence imaging) of the same molecule?
A: 90%

Q: What about the “Cdc7 kinase activity on Mcm2” value (human recombinant Cdc7) of the same molecule?
A: small molecule inhibitor of Cdc7 kinase activity

Q: And the “caspase 3 activity / apoptosis” value (PhALL3.1 cells)?
A: induces Caspase 3-mediated apoptosis

Q: With `CC1OC2CC(O[C@H]3CC[C@H](O)[C@H](C)O3)C1(O)c1c(O)c3c(c(O)c12)C(=O)C1=C(C3=O)[C@H](C)O[C@H]2CC(=O)O[C@@H]12` (stereo partly drawn) [Granaticin B, granaticin B] as the molecule, how does the “efficacy in mouse model of melanoma” value (SKMEL-28) read?
A: efficacious

Q: What about the “activity relative to granaticin A” value ([3]; against all the samples tested) of the same molecule?
A: approximately one log

Q: What about the “range of inhibition of cellular proliferation” value ([3]; all the samples tested) of the same molecule?
A: low nanomolar range

Q: And the “disease by luciferase imaging” value (OVCAR3 cells)?
A: essentially no disease

Q: What about the tumor reduction (PhALL3.1 [4]; highest dose, diffusion pump for seven days from day +3, imaged on day 12) of the same molecule?
A: 95%

Q: And the “organ toxicity at necropsy” value (PhALL3.1 [4]; mouse, in vivo)?
A: without obvious organ toxicity

Q: What about the solubility ([5]; organic solvent or mixture, in alcohol) of the same molecule?
A: > 188 mg/mL

Q: What about the solubility ([5]; organic solvent or mixture, in methanol) of the same molecule?
A: > 252 mg/mL

Q: What about the solubility ([5]; water, in aqueous solution) of the same molecule?
A: 4 mg/mL (≈ 7.16 mM)
